Laboratory results as given in patent US20250188123A1, “PROTEASE INHIBITORS” (Regents of the University of Minnesota, priority 2022, published 2025).
Read-outs that look alike come from different tables or passages of the source.

Tests used:
human caspase-2 = biological target: T1, human caspase-2 (Homo sapiens, UniProt P42575); assay: Fluorescent enzyme assay, Casp2 (AFC substrate Z-VDVAD-AFC); type: biochemical; conditions: for Ki (Casp3) / Ki (Casp2): selectivity Casp2 over Casp3
T1 construct: inferred from pET23b, XhoI reverse primer without stop codon, Ni-NTA purification) (C); made in house; host or cells: E. coli BL21(DE3)
T1 sequence (P42575 170-452): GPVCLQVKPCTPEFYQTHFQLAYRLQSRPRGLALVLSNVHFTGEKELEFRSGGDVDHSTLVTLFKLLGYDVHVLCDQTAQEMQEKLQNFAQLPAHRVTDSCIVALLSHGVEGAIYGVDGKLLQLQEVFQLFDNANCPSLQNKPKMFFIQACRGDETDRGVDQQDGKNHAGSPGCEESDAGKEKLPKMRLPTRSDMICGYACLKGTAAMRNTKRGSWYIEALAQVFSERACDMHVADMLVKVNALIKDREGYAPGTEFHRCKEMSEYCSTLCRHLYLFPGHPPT
Description: (§1) Human recombinant Casp1, 6, 7, and 9 were purchased from BioVision (Milpitas/CA, USA). AFC fluorogenic substrates and control peptides (AcYVAD-CHO, AcVDVAD-CHO, AcDEVD-CHO, AcVEID-CHO, and AcLEHD-CHO) were purchased from Bachem (Torrance/CA, USA). The pET23b vector encoding human caspase-3 was a gift of Dr. Michelle Arkin at University of California, San Francisco. Expression and purification of Casp3 was guided by previously described protocols (Denault J-B, Salvesen G S., Current Protocols in Protein Science, 2002, 30(1), 21.13. 1-21.13. 15). Briefly, the plasmid was transformed into E. coli Rosetta 2 pLyss DE3 cells that were cultured at 1 L scale in shake flasks. Five hours post induction with IPTG, cells were harvested through centrifugation (4000 g for 10 minutes at 4° C.), lysed by sonication, and centrifuged again for 30 minutes at 20000 g. Supernatant was resuspended in buffer (100 mM Tris pH 8.0, 500 mM NaCl). Purification was achieved by nickel-affinity chromatography followed by ion-exchange chromatography. Protein was diluted to 0.5 mg/mL and stored at −80° C. in 100 mM Tris, pH 8.0 supplemented with 10% glycerol. The typical yield for the expression, isolation, and purification was approximately 3 mg/L. The DNA encoding human caspase-2 (hCASP2, amino acids 170-452, free of the N-terminal caspase activation and recruitment domain) open reading frame (ORF) was amplified via polymerase chain reaction (PCR) from full-length hCASP2 cDNA (Origene, Rockville, MD; Cat #SC321316) using following primers: forward, 5′-[…]-3′; reverse, 5′-[…]-3′. The PCR fragment was then cloned into the pET23b vector (Millipore Sigma, Burlington, MA), and DNA sequence was verified by classic Sanger sequencing analyses. Site-directed mutageneses were carried out using a QuikChange II XL site-directed mutagenesis kit (Agilent Technologies, Santa Clara, CA; Cat #200522) according to the manufacturer's instruction. Expression of recombinant hCASP2 was induced using 150 μM isopropyl-β-D-thiogalactopyranoside (IPTG) (Promega, Madison, WI) in the BL21(DE3) E. coli strain (Millipore Sigma) at 16° C. for 14 hours while shaking at 250 rpm. Cells were then harvested via centrifugation at 6,000 g, 4° C. for 15 minutes, followed by lysis via sonication. Proteins were initially purified using HisPur Ni-NTA resin (Thermo Fisher Scientific, Waltham, MA) followed by metal chelating chromatography (5 mL HiTrap Chelating HP columns (GE Healthcare Life Sciences, Piscataway, NJ)). Further purification was carried out using anion exchange chromatography (5 mL HiTrap Q HP columns (GE Healthcare Life Sciences)) for hCASP2. Proteins were stored in 1× phosphate-buffered saline (pH 7.4) at 10 mg/mL (concentration determined using a BCA assay (Thermo Fisher Scientific)), −80° C. until further use.
(§2) KM values were determined experimentally to be the following: Casp1: 5.9 μM; Casp2: 37.1 μM; Casp3: 7.6 μM; Casp6: 14.5 μM; Casp7: 13.8 μM; Casp9: 149.1 μM. Enzymes were diluted in buffer: 100 mM MES (pH 6.5) for Casp2 and or 100 mM HEPES (pH 7.0) for all other caspases, plus 150 mM NaCl, 0.1% CHAPS, 1.5% sucrose, 10 mM DTT. Enzyme concentrations were 0.05 U/well for Casp1, 6, and 7; 0.5 U/well for Casp9, 20 nM/well for Casp2, and 2 nM/well for Casp3. Enzyme in buffer (19 μL) was added per well in a black 384-well Corning 4514 assay plate. Test compounds were serially diluted in dimethyl sulfoxide (DMSO) and plated in duplicate into a Corning 3656 transfer plate. Test compound was added to assay plates in 0.5 μL aliquots per well and mixed 10 times using a BiomekFX (Beckman Coulter). Compound and enzyme mixture was incubated at 37° C. for 5 minutes for aldehyde warheads and 45 minutes for cyano warheads. […]

human caspase-3 = biological target: T2, human caspase-3 (Homo sapiens, UniProt P42574); assay: Fluorescent enzyme assay, Casp3 (AFC substrate AcDEVD-AFC); type: biochemical
T2 construct: made in house; host or cells: E. coli Rosetta 2 pLysS DE3
T2 sequence (P42574 29-277): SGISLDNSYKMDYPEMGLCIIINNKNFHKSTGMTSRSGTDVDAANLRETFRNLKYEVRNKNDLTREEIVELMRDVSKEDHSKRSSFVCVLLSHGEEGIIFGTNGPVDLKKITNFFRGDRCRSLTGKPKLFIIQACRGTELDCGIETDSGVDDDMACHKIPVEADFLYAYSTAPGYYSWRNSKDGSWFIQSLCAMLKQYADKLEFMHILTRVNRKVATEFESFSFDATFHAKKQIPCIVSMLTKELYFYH
Description: as §1, §2

[1] = mean ± SEM of N independent experiments, each in duplicate or triplicate

Compound | Ki (human caspase-2) [nM] | selective versus Casp3 (human caspase-2; Casp2 over Casp3) [fold] | Ki (Casp3) / Ki (Casp2) (human caspase-2) | Ki (human caspase-3) [nM] | pKi ± SEM Casp 2 (human caspase-2; [1]) | pKi ± SEM Casp 3 (human caspase-3; [1]) | Ki (human caspase-2; mean ± SEM of N independent experiments, each in duplicate or triplicate, read-out: pKi ± SEM Casp 2 (converted)) [nM] | Ki (human caspase-3; mean ± SEM of N independent experiments, each in duplicate or triplicate, read-out: pKi ± SEM Casp 3 (converted)) [nM]
Cc1ccc2c(c1)CCN(C(=O)[C@@H](NC(=O)[C@H](CCCC(=O)O)NC(=O)C1Cc3ccccc3N1)C(C)C)[C@@H]2C(=O)N[C@H](C#N)CC(=O)O (stereo partly drawn) [Compound 1, (8)-6-(((S)-1-((8)-1-(((S)-2-carboxy-1-cyanoethyl)carbamoyl)-6-methyl-3,4-dihydroisoquinolin-2(1H)-yl)-3-methyl-1-oxobutan-2-yl)amino)-5-((S)-indoline-2-carboxamido)-6-oxohexanoic acid] | 7.59 | 123 | 123 | 933 |  |  |  | 
CC(=O)N[C@H](C(=O)N[C@@H](CC(=O)O)C(=O)N[C@H](C(=O)N1CCc2cc(C)ccc2[C@H]1C(=O)N[C@H](C=O)CC(=O)O)C(C)C)C(C)C [Compound 30b, (S)-3-((S)-2-acetamido-3-methylbutanamido)-4-(((S)-1-((S)-1-(((S)-1-carboxy-3-oxopropan-2-yl)carbamoyl)-6-methyl-3,4-dihydroisoquinolin-2(1H)-yl)-3-methyl-1-oxobutan-2-yl)amino)-4-oxobutanoic acid, reference compound] |  |  | 70 |  | 7.89 ± 0.02 | 6.04 ± 0.06 |  | 
CC(=O)N[C@H](C(=O)NC(CC(=O)O)C(=O)N[C@H](C(=O)N1CCc2cc(C)ccc2C1C(=O)N[C@H](C=O)CC(=O)O)C(C)C)C(C)C (stereo in doubt) [Compound 30a, (R)-3-((S)-2-acetamido-3-methylbutanamido)-4-(((S)-1-((S)-1-(((S)-1-carboxy-3-oxopropan-2-yl)carbamoyl)-6-methyl-3,4-dihydroisoquinolin-2(1H)-yl)-3-methyl-1-oxobutan-2-yl)amino)-4-oxobutanoic acid, reference compound] |  |  | >9 |  |  |  | 10500 | > 100000
